Test results reported in patent publication US20250195478A1, “DUAL INHIBITORS OF VISTA AND PD-1 PATHWAYS” (Aurigene Oncology Limited, priority 2016, published 2025).

How the values were obtained:
[1] = molecular target: T1, recombinant human VISTA (Homo sapiens, UniProt Q9H7M9); test: Human PBMC IFN-γ release assay in the presence of recombinant human VISTA; format: cell-based; details: 100 nM compound, plate-coated VISTA + anti-CD3, anti-CD28, 72 h, ELISA
T1 construct: Fc (Fc chimera); purchased R&D Systems 7126-B7
T1 sequence (Q9H7M9 with tags, fused parts or gaps limits assumed): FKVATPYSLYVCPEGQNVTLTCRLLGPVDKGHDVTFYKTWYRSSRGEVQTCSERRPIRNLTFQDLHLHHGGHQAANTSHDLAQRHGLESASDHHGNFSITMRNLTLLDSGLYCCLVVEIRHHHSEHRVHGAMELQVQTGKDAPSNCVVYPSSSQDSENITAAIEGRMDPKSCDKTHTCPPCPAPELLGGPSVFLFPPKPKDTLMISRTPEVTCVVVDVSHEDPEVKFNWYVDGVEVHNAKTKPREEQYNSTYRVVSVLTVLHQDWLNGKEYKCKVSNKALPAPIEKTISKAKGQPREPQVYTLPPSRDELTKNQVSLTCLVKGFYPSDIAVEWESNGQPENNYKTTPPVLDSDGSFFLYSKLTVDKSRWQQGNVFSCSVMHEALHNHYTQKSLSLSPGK
Protocol: Example 2: Rescue of Mouse Splenocyte Proliferation in the Presence of Recombinant VISTA
Vehicle: Milli Q water; RPMI 1640 (GIBCO, Cat #11875); Fetal Bovine Serum [Hyclone, Cat #SH30071.03]; Penicilin (10000 unit/ml)-Streptomycin (10,000 μg/ml) liquid (GIBCO, Cat #15140-122); MEM Sodium Pyruvate solution 100 mM (100×), Liquid (GIBCO, Cat #11360); Nonessential amino acid (GIBCO, Cat #11140); L-Glutamine (GIBCO, Cat #25030); Recombinant human VISTA (rhGi24 VISTA/B7-H5 Fc chimera (R&D systems, cat no: 7126-B7); Anti-h/m Gi24/VISTA/B7-H5 purified mouse monoclonal IgG2B (R&D systems, cat no: MAB7126); Mouse IgG2B isotype control (R&D Systems cat no: MAB 004); Anti human-CD3 antibody (eBiosciences-16-0039); Anti human-CD28 antibody (eBiosciences-16-0289); Histopaque (density-1.077 gm/ml) (SIGMA 1077); Trypan Blue solution (SIGMA-T8154); Hemacytometer (Bright line-SIGMA Z359629); FACS Buffer containing Phosphate Buffered Saline (PBS) pH 7.2; (HiMedia TS1006) with 0.1% Bovine Serum Albumin (BSA) (SIGMA A7050) and sodium azide (SIGMA 08591); 96-well format ELISA plates (Corning 3599); 96-well format ELISA plates (Corning 3361); BD FACS caliber (E6016); Centrifuge (Eppendorf 5810 R); Human IFN-γ Duo set ELISA kit (R&D Systems; cat no: DY-285).
96-well cell culture plates were pre-coated with recombinant human VISTA (2.5 μg/ml) and anti-human CD3 (2.5 μg/ml), and stored at 4° C. overnight. Anti-human VISTA and isotype control antibodies were either coated along with the VISTA or incubated for 30 min next day before addition of cells. On the next day, plates were washed with 1×PBS and then incubated with test compounds for 30 min. Isolated PBMC (0.1×10^6 cells/well) and anti-human CD28 antibodies (lug/ml) were added to the wells. The culture was further incubated for 72 h at 37° C. with 5% CO2. After 72 h of incubation the cell culture supernatants were collected after brief centrifugation at 200 g×5 min at 4° C. and processed for human IFN-γ measurement by ELISA following manufacturer's protocol (R&D Systems; DY-285).
In brief, 96-well ELISA plates were coated with 100 μl/well of capture antibody in coating buffer and incubated overnight at 4° C. Plates were washed five times with wash buffer and further blocked with 200 μl of 1× assay diluents for 1 hr at RT. Following wash step, 100 μl of cell culture supernatants were added to wells and further incubated for 2 hr at RT. Appropriate standards were also included. After wash step, plate was incubated for one hour with 100 μl/well of detection antibody. The wash step was repeated and the plate was incubated for 30 min with 100 μl/well of Avidin-HRP. The plate was washed four times with wash buffer and subsequently incubated for 15 min with 100 μl/well of substrate solution. 50 μl of stop solution was added to each well and the plate was read at 450 nm using Gen5 ver 2.05. Delta OD values were used for calculating the concentrations. The absorbance values were plotted against the standards and the concentration of IFN-γ was determined using GraphPad Prism software. Each experimental condition was carried out in triplicates.
The percent rescue of IFN-γ release of the selected compounds of present invention are set forth below wherein “A” refers to compounds having more than 70% rescue of IFN-γ release, “B” refers to compounds having rescue of IFN-γ release ranges from 50% to 69.9% and “C” refers to compounds having less than 50% rescue of IFN-γ release.

[2] = molecular target: T2, Recombinant mouse PD-L1 (Mus musculus, UniProt Q9EP73); test: Rescue of mouse splenocyte proliferation in the presence of recombinant PD-L1 (CFSE proliferation assay); format: cell-based; details: 100 nM compound; anti-CD3/CD28 stimulated mouse splenocytes + PD-L1; 72 h; stimulated splenocytes = 100%; read-out: PDL1 (rescue of proliferation @ 100 nM)
T2 construct: Fc (Fc chimera); purchased R&D Systems 1019-B7-100
T2 sequence (Q9EP73 19-238 limits assumed): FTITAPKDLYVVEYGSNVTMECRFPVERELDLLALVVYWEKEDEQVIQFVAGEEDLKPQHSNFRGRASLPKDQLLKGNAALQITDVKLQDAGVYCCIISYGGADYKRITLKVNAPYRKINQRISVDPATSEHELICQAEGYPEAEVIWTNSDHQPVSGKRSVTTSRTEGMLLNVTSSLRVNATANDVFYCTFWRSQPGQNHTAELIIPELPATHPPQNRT
Protocol: Example 1: Rescue of Mouse Splenocyte Proliferation in the Presence of Recombinant PD-L1/PD-L2
Recombinant mouse PD-L1 (rm-PDL-1, cat no: 1019-B7-100; R&D Systems) were used as the source of PD-L1.
Mouse splenocytes harvested from 6-8 weeks old C57 BL6 mice; RPMI 1640 (GIBCO, Cat #11875); DMEM with high glucose (GIBCO, Cat #D6429); Fetal Bovine Serum [Hyclone, Cat #SH30071.03]; Penicillin (10000unit/mL)-Streptomycin (10,000 μg/mL) Liquid (GIBCO, Cat #15140-122); MEM Sodium Pyruvate solution 100 mM (100×), Liquid (GIBCO, Cat #11360); Nonessential amino acid (GIBCO, Cat #11140); L-Glutamine (GIBCO, Cat #25030); Anti-CD3 antibody (eBiosciences-16-0032); Anti-CD28 antibody (eBiosciences-16-0281); ACK lysis buffer (1mL) (GIBCO, Cat #-A10492); Histopaque (density-1.083 gm/mL) (SIGMA 10831); Trypan blue solution (SIGMA-T8154); 2 mL Norm Ject Luer Lock syringe-(Sigma 2014-12); 40 μm nylon cell strainer (BD FALCON 35230); Hemacytometer (Bright line-SIGMA Z359629); FACS Buffer (PBS/0.1% BSA): Phosphate Buffered Saline (PBS) pH 7.2 (HiMedia TS1006) with 0.1% Bovine Serum Albumin (BSA) (SIGMA A7050) and sodium azide (SIGMA 08591); 5 mM stock solution of CFSE: CFSE stock solution was prepared by diluting lyophilized CFSE with 180 μL of Dimethyl sulfoxide (DMSO C2H6SO, SIGMA-D-5879) and aliquoted in to tubes for further use. Working concentrations were titrated from 10 μM to 1 μM. (eBioscience-650850-85); 0.05% Trypsin and 0.02% EDTA (SIGMA 59417C); 96-well format ELISA plates (Corning CLS3390); BD FACS caliber (E6016);
Recombinant mouse B7-H1/PDL1 Fc Chimera, (rm-PD-L1 cat no: 1019-B7-100).
Splenocytes harvested in a 50 mL falcon tube by mashing mouse spleen in a 40 μm cell strainer were further treated with 1 mL ACK lysis buffer for 5 min at room temperature.
After washing with 9 mL of RPMI complete media, cells were re-suspended in 3 mL of 1×PBS in a 15 mL tube. 3 mL of Histopaque was added carefully to the bottom of the tube without disturbing overlaying splenocyte suspension. After centrifuging at 800×g for 20 min at room temperature, the opaque layer of splenocytes was collected carefully without disturbing/mixing the layers. Splenocytes were washed twice with cold 1×PBS followed by total cell counting using Trypan Blue exclusion method and used further for cell based assays.
Splenocytes were cultured in RPMI complete media (RPMI +10% fetal bovine serum+1 mM sodium pyruvate+10,000units/mL penicillin and 10,000 μg/mL streptomycin) and maintained in a CO2 incubator with 5% CO2 at 37° C.
CFSE is a dye that passively diffuses into cells and binds to intracellular proteins. 1×10^6 cells/mL of harvested splenocytes were treated with 5 μM of CFSE in pre-warmed 1×PBS/0.1% BSA solution for 10 min at 37° C. Excess CFSE was quenched using 5 volumes of ice-cold culture media to the cells and incubated on ice for 5 min. CFSE labelled splenocytes were further given three washes with ice cold complete RPMI media. CFSE labelled 1×10^5 splenocytes added to wells containing either MDA-MB231 cells (1×10^5 cells cultured in high glucose DMEM medium) or recombinant […] PDL-1 (100 ng/mL) and test compounds. Splenocytes were stimulated with anti-mouse CD3 and anti-mouse CD28 antibody (lug/mL each), and the culture was further incubated for 72 h at 37° C. with 5% CO2. Cells were harvested and washed thrice with ice cold FACS buffer and % proliferation was analysed by flow cytometry with 488 nm excitation and 521 nm emission filters.
Percent splenocyte proliferation was analysed using cell quest FACS program and percent rescue of splenocyte proliferation by compound was estimated after deduction of % background proliferation value and normalising to % stimulated splenocyte proliferation (positive control) as 100%.
Stimulated splenocytes: Splenocytes+anti-CD3/CD28 stimulation
Background proliferation: Splenocytes+anti-CD3/CD28+PD-L1
Compound proliferation: Splenocytes+anti-CD3/CD28+PD-L1+Compound […]

| SMILES | VISTA (rescue of IFN γ release @ 100 nM) [1] | activation at 0.1 µM [2] |
| --- | --- | --- |
| CC(O)[C@H](NC(=O)N[C@@H](CC(N)=O)c1nc([C@@H](N)CO)no1)C(=O)O (some centres unmarked) [Compound 1] | A (more than 70% rescue of IFN-γ release) | 97% |
| CC(O)[C@H](NC(=O)N[C@@H](CC(N)=O)c1nc([C@@H](N)C(C)O)no1)C(=O)O (some centres unmarked) [Compound 2] | A (more than 70% rescue of IFN-γ release) | 75% |
| N[C@@H](CO)c1noc([C@H](CC(=O)O)NC(=O)N[C@@H](CO)C(=O)O)n1 [Compound 3] | C (less than 50% rescue of IFN-γ release) | 91% |
| NCCCC[C@H](NC(=O)N[C@@H](CC(N)=O)c1nc([C@@H](N)CO)no1)C(=O)O [Compound 4] | B (rescue of IFN-γ release ranges from 50% to 69.9%) |  |
| CC(O)[C@H](NC(=O)N[C@@H](CC(N)=O)c1nc([C@@H](N)Cc2ccc(O)cc2)no1)C(=O)O (some centres unmarked) [Compound 5] | A (more than 70% rescue of IFN-γ release) |  |
| CN[C@@H](CO)c1noc([C@H](CC(N)=O)NC(=O)N[C@H](C(=O)O)C(C)O)n1 (some centres unmarked) [Compound 6] | C (less than 50% rescue of IFN-γ release) | 63% |
| CC(O)[C@H](NC(=O)N[C@@H](CC(N)=O)c1nc([C@@H](N)CCCCN)no1)C(=O)O (some centres unmarked) [Compound 7] | C (less than 50% rescue of IFN-γ release) | 96% |
| CC(O)[C@H](NC(=O)N[C@@H](Cc1cc2ccccc2[nH]1)c1nc([C@@H](N)CO)no1)C(=O)O (some centres unmarked) [Compound 8] | B (rescue of IFN-γ release ranges from 50% to 69.9%) | 60% |
| CC(O)[C@H](NC(=O)N[C@H](c1nc([C@@H](N)CO)no1)C(C)C)C(=O)O (some centres unmarked) [Compound 9] | C (less than 50% rescue of IFN-γ release) |  |
| CCCCCCNC(=O)C[C@H](NC(=O)N[C@H](C(=O)O)C(C)O)c1nc([C@@H](N)CO)no1 (some centres unmarked) [Compound 10] | C (less than 50% rescue of IFN-γ release) |  |
| CCC(C)[C@H](NC(=O)N[C@@H](CCC(=O)O)C(=O)O)c1nc([C@@H](N)CCC(N)=O)no1 (some centres unmarked) [Compound 11] | C (less than 50% rescue of IFN-γ release) |  |
| NCCCC[C@H](N)c1noc([C@H](CCC(N)=O)NC(=O)N[C@@H](CO)C(=O)O)n1 [Compound 12] | B (rescue of IFN-γ release ranges from 50% to 69.9%) |  |
| N[C@@H](CO)c1noc([C@H](CO)NC(=O)N[C@@H](CO)C(=O)O)n1 [Compound 13] | B (rescue of IFN-γ release ranges from 50% to 69.9%) |  |
| N[C@@H](Cc1cnc[nH]1)c1noc([C@H](CC(=O)O)NC(=O)N[C@@H](CO)C(=O)O)n1 [Compound 14] | B (rescue of IFN-γ release ranges from 50% to 69.9%) | 59% |
| CC(O)[C@H](NC(=O)N[C@@H](CC(=O)O)c1nc([C@@H](N)CCCNC(=N)N)no1)C(=O)O (some centres unmarked) [Compound 15] | C (less than 50% rescue of IFN-γ release) | 70% |
| N=C(N)NCCC[C@H](N)c1noc([C@H](CC(=O)O)NC(=O)N[C@@H](CO)C(=O)O)n1 [Compound 16] | B (rescue of IFN-γ release ranges from 50% to 69.9%) |  |
| CC(=O)NCCCC[C@@H](NC(=O)N[C@H](C(=O)O)C(C)O)c1nc([C@@H](N)CO)no1 (some centres unmarked) [Compound 17] | C (less than 50% rescue of IFN-γ release) |  |
| CCCCCCNC(=O)CC[C@H](NC(=O)N[C@H](C(=O)O)C(C)O)c1nc([C@@H](N)CO)no1 (some centres unmarked) [Compound 18] | C (less than 50% rescue of IFN-γ release) |  |
| CC(O)[C@@H](NC(=O)N[C@@H](CC(N)=O)c1nc([C@@H](N)CO)no1)C(=O)O (some centres unmarked) [Compound 20] | A (more than 70% rescue of IFN-γ release) |  |
| CC(O)[C@H](NC(=O)N[C@@H](CC(N)=O)c1nc(C2(N)CCCC2)no1)C(=O)O (some centres unmarked) [Compound 25] | C (less than 50% rescue of IFN-γ release) |  |
| CCC(C)[C@H](NC(=O)N[C@H](C(=O)O)[C@@H](C)O)c1nc([C@@H](N)CO)no1 (some centres unmarked) [Compound 27] | A (more than 70% rescue of IFN-γ release) |  |
